Results reported in publication PMC11946893 (Nature, 2025).
Peptide text beside a SMILES is read from it.

How the values were obtained:
S. typhimurium = assay: Intracellular infection assay; assay type: cell-based, S. typhimurium SL1344 in A549 cells; details: A549 cells expressing dTAG–PPP1CB pre-incubated 1 h with dTAG^V-1
S. enterica = assay: Bacterial growth in conditioned medium; assay type: cell-based, Salmonella enterica
M. luteus = assay: Intracellular infection assay; assay type: cell-based, M. luteus in A549 cells; details: A549 cells expressing dTAG–PPP1CB pre-incubated 1 h with dTAG^V-1
CaCo-2 monolayer = assay: TEER assay, CaCo-2 monolayer cocultured with P. aeruginosa; assay type: cell-based, human; details: P. aeruginosa coculture, 6 h, n = 3

## CC[C@H](C(=O)N1CCCC[C@H]1C(=O)O[C@H](CCc1ccc(OC)c(OC)c1)c1ccccc1OCC(=O)NCCCCCCC(=O)N[C@H](C(=O)N1C[C@H](O)C[C@H]1C(=O)N[C@@H](C)c1ccc(-c2scnc2C)cc1)C(C)(C)C)c1cc(OC)c(OC)c(OC)c1 [dTAG^V-1]
S. typhimurium
  intracellular bacterial infection (CFU counts, imaging): attenuated intracellular bacterial infection significantly
S. enterica; A549 cells expressing dTAG–PPP1CB, 500 nM dTAG^V-1 for 6 h vs DMSO
  reduction of bacterial growth in conditioned medium: 20%
M. luteus
  intracellular bacterial infection (CFU counts): attenuated intracellular bacterial infection significantly

## CC(=O)N[C@@H](CC(C)C)C(=O)N[C@@H](CC(C)C)C(=O)N[C@H](C=O)CCCNC(=N)N [leupeptin]
S. enterica; medium from cells treated with leupeptin 20 µM for 6 h
  bacterial growth in conditioned medium: increase in bacterial growth

## CC[C@H](C)[C@H](NC(=O)[C@H](CC(N)=O)NC(=O)[C@H](Cc1ccccc1)NC(=O)[C@H](CCCNC(=N)N)NC(=O)[C@H](CCCNC(=N)N)NC(=O)[C@@H](N)CCCCN)C(=O)N[C@@H](CCCCN)C(=O)N[C@@H](CC(C)C)C(=O)N[C@@H](Cc1c[nH]c2ccccc12)C(=O)N[C@@H](CCCCN)C(=O)N[C@H](C(=O)N[C@@H](Cc1ccccc1)C(=O)O)[C@@H](C)O [PPP1CB] (H-KRRFNIKLWKTF-OH)
CaCo-2 monolayer
  disruption of CaCo-2 barrier integrity by P. aeruginosa (TEER barrier index): fully abolished
